{"source": "patent EP2666869A1", "about": "(priority 2012, dated 2013)", "key": {"[1]": {"test": "Toxicity assessment (NCI-CTCAE grading) and risk factor analysis in the first month of sorafenib treatment", "assay_type": "in vivo, human", "excerpt": "(§1) Adverse events were reported and graded according to the National Cancer Institute Common Terminology Criteria (NCI-CTCAE) on days 15 and 30 after treatment initiation. Diarrhea and HFSR were graded according to the NCI-CTCAE 3.0 version, while hypertension was retrospectively graded according to the 4.0 version. In case of grade 4 hematological toxicity or grade 3 or 4 non-hematological toxicity, treatment was discontinued until side effects recovered to grade 1, or returned to baseline. Subsequent dose reductions were left at the discretion of the treating physician.\n(§2) For descriptive statistics, qualitative variables were expressed in numbers and percentages and quantitative ones in medians [inter-quartile intervals]. Glomerular filtration rate (GFR) and lean body mass (LBM) were estimated using the Modification of the Diet in Renal Disease (MDRD) formula and the Green's formula, respectively. […] Then, the relationships between the dose-standardized AUC and other variables were tested using two-sample Wilcoxon tests or Kruskal-Wallis tests for qualitative variables with two modalities or more than two modalities, respectively, and by Spearman rank correlation coefficient tests for quantitative ones. The following variables were tested: age, gender, ECOG status, weight, body mass index (BMI), LBM, primary tumor site, polymorphisms of CYP3A5 (rs776746), UGT1A9 (rsl78868320, rs6714486, rs72551330), ABCB1 (rs2231137, rs1045642), ABCG2 (rs2231137, rs2231142, rs2622604), alanine aminotransferase (ALT), aspartate aminotransferase (AST), alkaline phosphatase (ALP), gamma-glutamyl transpeptidase (GGT), bilirubin, albumin, C-Reactive Protein, creatinine and MDRD GFR. A stepwise multiple linear regression was then performed with variables significant with p < 0.10 in the first step included in the regression and variables significant with p < 0.05 kept in the final model. For the analysis of sorafenib-induced toxicities in the first month of treatment, we used dichotomous end points expressed as any toxicity ≥ grade 3 (yes or no), or grade ≥ 2 HFSR (yes or no), or grade ≥ 2 diarrhea (yes or no), or grade ≥ 2 hypertension (yes or no). The cumulated AUC between day 0 and day 30 was calculated as the sum of two areas, (0-15 days) and (15-30 days) which were estimated using the trapezoidal rule. The area was multiplied by 24 to express the result in mg/L.h. […] On day 0, Cav0 was fixed at 0 mg/L.\nThe univariate analysis of toxicity risk factors was carried out using two sample Wilcoxon tests for quantitative variables and Chi square or Fisher exact tests for qualitative ones. Fisher exact tests were performed as soon as at least one expected value was lower than 5. […] The multivariate analysis was performed by a stepwise logistic regression. Variables with p-values < 0.10 in the univariate analysis were included in the regression and variables with a Wald test p-value < 0.05 were kept in the final model. All the tests were two-sided, and they were considered significant when p-values were < 0.05. The receiver operating characteristic (ROC) curve was constructed to examine the value of an AUCcum threshold predicting a toxicity of grade ≥ 3 in the first month of treatment. The diagnostic accuracy values of sensitivity and specificity were determined, as well as the positive predictive value (PPV) and the negative predictive value (NPV). Computations were performed using the SAS V9 statistical package (SAS institute, Cary, NC)."}, "[2]": {"test": "Sorafenib pharmacokinetic analysis (plasma concentrations, Bayesian estimation of AUC and Cav)", "assay_type": "in vivo, human", "details": "for AUC at 720 h: Cumulated sorafenib AUC, day 0 to day 30; for AUC tau at 720 h: day 30", "excerpt": "as §1\nThis Bayesian estimator is based on a 1-compartment model with saturated absorption, first-order intestinal loss and linear elimination.\nas §2, with “For the analysis of sorafenib-induced toxicities in the first month of treatment, we used dichotomous end points expressed as any toxicity ≥ grade 3 (yes or no), or grade ≥ 2 HFSR (yes or no), or grade ≥ 2 diarrhea (yes or no), or grade ≥ 2 hypertension (yes or no).” left out"}, "[3]": {"details": "AUCcum threshold value of 3,161 mg/L.h, toxicity of grade ≥ 3"}}, "note": "“And” between values parts separate entries of the source, which are not always exact repeats. Identical values can stand only once. Like-named read-outs stand apart in the source and are kept apart here.", "data": [{"compound": "CNC(=O)c1cc(Oc2ccc(NC(=O)Nc3ccc(Cl)c(C(F)(F)F)c3)cc2)ccn1", "note": "[sorafenib]", "values": [{"measurement": "NPV", "setting": "[1]; [3]", "result": 63.3, "unit": "%"}, {"measurement": "PPV", "setting": "[1]; [3]", "result": 75.8, "unit": "%"}, {"measurement": "area under the ROC curve for the AUCcum threshold", "setting": "[1]; CI 95%, 61-78%", "result": 69, "unit": "%"}, {"measurement": "Any toxicity ≥ grade 3: No", "setting": "[1]; CYP3A5 6986 A>G AA (*1/*1)", "result": "0 (0) n (%)"}, {"measurement": "Any toxicity ≥ grade 3: Yes", "setting": "[1]; CYP3A5 6986 A>G AA (*1/*1)", "result": "4 (100) n (%)"}, {"measurement": "Any toxicity ≥ grade 3: No", "setting": "[1]; CYP3A5 6986 A>G AG (*1/*3)", "result": "6 (67) n (%)"}, {"measurement": "Any toxicity ≥ grade 3: Yes", "setting": "[1]; CYP3A5 6986 A>G AG (*1/*3)", "result": "3 (33) n (%)"}, {"measurement": "Any toxicity ≥ grade 3: No", "setting": "[1]; CYP3A5 6986 A>G GG (*3/*3)", "result": "24 (63) n (%)"}, {"measurement": "Any toxicity ≥ grade 3: Yes", "setting": "[1]; CYP3A5 6986 A>G GG (*3/*3)", "result": "14 (37) n (%)"}, {"measurement": "Any toxicity ≥ grade 3: No", "setting": "[1]; Female", "result": "5 (33.3) n (%)"}, {"measurement": "Any toxicity ≥ grade 3: Yes", "setting": "[1]; Female", "result": "10 (66.7) n (%)"}, {"measurement": "Hand Foot Skin Reaction ≥ grade 2: No", "setting": "[1]; Female", "result": "5 (33.3) n (%)"}, {"measurement": "Hand Foot Skin Reaction ≥ grade 2: Yes", "setting": "[1]; Female", "result": "10 (66.7) n (%)"}, {"measurement": "Any toxicity ≥ grade 3: No", "setting": "[1]; Male", "result": "25 (67.6) n (%)"}, {"measurement": "Any toxicity ≥ grade 3: Yes", "setting": "[1]; Male", "result": "12 (32.4) n (%)"}, {"measurement": "Hand Foot Skin Reaction ≥ grade 2: No", "setting": "[1]; Male", "result": "25 (52.0) n (%)"}, {"measurement": "Hand Foot Skin Reaction ≥ grade 2: Yes", "setting": "[1]; Male", "result": "12 (48.0) n (%)"}, {"measurement": "Occurrence during first month of treatment: Diarrhea", "setting": "[1]; No", "result": "37 (69) n (%)"}, {"measurement": "Occurrence during first month of treatment: Hypertension", "setting": "[1]; No", "result": "28 (52) n (%)"}, {"measurement": "Occurrence during first month of treatment: Hand-foot skin reaction", "setting": "[1]; No, 54 patients", "result": "17 (31) n (%)"}, {"measurement": "AUCcum threshold predicting a toxicity of grade ≥ 3", "setting": "[1]; ROC curve, first month of treatment", "result": "3,161 mg/L.h"}, {"measurement": "Diarrhea ≥ grade 2: No", "setting": "[1]; UGT1A9 -275 T>A m/m", "result": "0 (0) n (%)"}, {"measurement": "Diarrhea ≥ grade 2: Yes", "setting": "[1]; UGT1A9 -275 T>A m/m", "result": "0 (0) n (%)"}, {"measurement": "Diarrhea ≥ grade 2: No", "setting": "[1]; UGT1A9 -275 T>A wt/m", "result": "2 (50) n (%)"}, {"measurement": "Diarrhea ≥ grade 2: Yes", "setting": "[1]; UGT1A9 -275 T>A wt/m", "result": "2 (50) n (%)"}, {"measurement": "Diarrhea ≥ grade 2: No", "setting": "[1]; UGT1A9 -275 T>A wt/wt", "result": "43 (93) n (%)"}, {"measurement": "Diarrhea ≥ grade 2: Yes", "setting": "[1]; UGT1A9 -275 T>A wt/wt", "result": "3 (7) n (%)"}, {"measurement": "Diarrhea ≥ grade 2: No", "setting": "[1]; UGT1A9 -2152 C>T m/m", "result": "0 (0) n (%)"}, {"measurement": "Diarrhea ≥ grade 2: Yes", "setting": "[1]; UGT1A9 -2152 C>T m/m", "result": "0 (0) n (%)"}, {"measurement": "Diarrhea ≥ grade 2: No", "setting": "[1]; UGT1A9 -2152 C>T wt/m", "result": "2 (50) n (%)"}, {"measurement": "Diarrhea ≥ grade 2: Yes", "setting": "[1]; UGT1A9 -2152 C>T wt/m", "result": "2 (50) n (%)"}, {"measurement": "Diarrhea ≥ grade 2: No", "setting": "[1]; UGT1A9 -2152 C>T wt/wt", "result": "42 (93) n (%)"}, {"measurement": "Diarrhea ≥ grade 2: Yes", "setting": "[1]; UGT1A9 -2152 C>T wt/wt", "result": "3 (7) n (%)"}, {"measurement": "Occurrence during first month of treatment: Diarrhea", "setting": "[1]; Yes", "result": "17 (31) n (%)"}, {"measurement": "Occurrence during first month of treatment: Hypertension", "setting": "[1]; Yes", "result": "25 (46) n (%)"}, {"measurement": "Occurrence during first month of treatment: Hand-foot skin reaction", "setting": "[1]; Yes, 54 patients", "result": "37 (69) n (%)"}, {"measurement": "Occurrence during first month of treatment: Diarrhea", "setting": "[1]; grade < 2", "result": "12 n (%)"}, {"measurement": "Occurrence during first month of treatment: Hand-foot skin reaction", "setting": "[1]; grade < 2", "result": "15 n (%)"}, {"measurement": "Occurrence during first month of treatment: Hypertension", "setting": "[1]; grade < 2", "result": "5 n (%)"}, {"measurement": "Occurrence during first month of treatment: Diarrhea", "setting": "[1]; grade ≥ 2 (grade 2-3)", "result": "5 (9%) n (%) and 5 n (%)"}, {"measurement": "Occurrence during first month of treatment: Hand-foot skin reaction", "setting": "[1]; grade ≥ 2 (grade 2-3)", "result": "22 (41%) n (%) and 22 n (%)"}, {"measurement": "Occurrence during first month of treatment: Hypertension", "setting": "[1]; grade ≥ 2 (grade 2-3)", "result": "20 (38%) n (%) and 20 n (%)"}, {"measurement": "grade 3 or 4 toxicity: diarrhea", "setting": "[1]; on days 15 or 30, 5% of the 22 patients with grade 3 or 4 toxicity", "result": 1, "unit": "n"}, {"measurement": "grade 3 or 4 toxicity: hypertension", "setting": "[1]; on days 15 or 30, 27% of the 22 patients with grade 3 or 4 toxicity", "result": 6, "unit": "n"}, {"measurement": "grade 3 or 4 toxicity: HFSR", "setting": "[1]; on days 15 or 30, 68% of the 22 patients with grade 3 or 4 toxicity", "result": 15, "unit": "n"}, {"measurement": "patients who experienced grade 3 or 4 toxicity", "setting": "[1]; on days 15 or 30, twenty-two of 54 patients", "result": 41, "unit": "%"}, {"measurement": "patients who required dose reductions because of toxic effects", "setting": "[1]; over the study period", "result": 9, "unit": "n"}, {"measurement": "patients who required interruption of treatment because of toxic effects", "setting": "[1]; over the study period", "result": 10, "unit": "n"}, {"measurement": "patients who required dose reductions or interruption of treatment because of toxic effects", "setting": "[1]; over the study period, nineteen patients", "result": 35, "unit": "%"}, {"measurement": "toxic death in relation with sorafenib", "setting": "[1]; study period", "result": "no toxic death"}, {"measurement": "Spearman's coefficient (rho)", "setting": "[2]; dose-normalized AUC day 15 versus Creatinine (µmol/L)", "result": -0.26}, {"measurement": "Spearman's coefficient (rho)", "setting": "[2]; dose-normalized AUC day 15 versus LBM (kg)", "result": -0.28}, {"measurement": "AUC at 720 h", "setting": "[2]; human, plasma, patients with Hand Foot Skin Reaction ≥ grade 2, median [interquartile range]", "result": 3310, "unit": "µg·h/mL"}, {"measurement": "AUC at 720 h", "setting": "[2]; human, plasma, patients with any toxicity ≥ grade 3, median [interquartile range]", "result": 3500, "unit": "µg·h/mL"}, {"measurement": "AUC at 720 h", "setting": "[2]; human, plasma, patients without Hand Foot Skin Reaction ≥ grade 2, median [interquartile range]", "result": 2250, "unit": "µg·h/mL"}, {"measurement": "AUC at 720 h", "setting": "[2]; human, plasma, patients without any toxicity ≥ grade 3, median [interquartile range]", "result": 2250, "unit": "µg·h/mL"}, {"measurement": "AUC tau at 360 h", "setting": "[2]; human, plasma, day 15, females, read-out: median absolute AUC", "result": 78.3, "unit": "µg·h/mL"}, {"measurement": "AUC tau at 360 h", "setting": "[2]; human, plasma, day 15, males, read-out: median absolute AUC", "result": 52.4, "unit": "µg·h/mL"}, {"measurement": "AUC tau at 720 h", "setting": "[2]; human, plasma, females, read-out: median absolute AUC", "result": 82.2, "unit": "µg·h/mL"}, {"measurement": "AUC tau at 720 h", "setting": "[2]; human, plasma, males, read-out: median absolute AUC", "result": 55.2, "unit": "µg·h/mL"}, {"measurement": "AUC tau at 12 h", "setting": "[2]; human, plasma, median absolute sorafenib AUC, day 15, all patients, AUC 0 to 12 hours, median [interquartile range]", "result": 62, "unit": "µg·h/mL"}, {"measurement": "AUC tau at 720 h", "setting": "[2]; human, plasma, median absolute sorafenib AUC, all patients, median [interquartile range]", "result": 61, "unit": "µg·h/mL"}]}]}
